Measurements taken from patent US7268232B2 (Acadia Pharmaceuticals Inc., priority 2004, dated 2007).
Counter-ions that a name gives are not always drawn.

Experiments:
Androgen AR receptor = biological target: T1, Androgen AR receptor (Homo sapiens, UniProt P10275); assay: Receptor Selection and Amplification (R-SAT) assay, androgen receptor agonist activity; format: cell-based; conditions: for Emax: NIH3T3, read-out: % Efficacy
T1 construct: expressed in transfected cells; host or cells: NIH3T3 cells
T1 sequence (P10275 1-920): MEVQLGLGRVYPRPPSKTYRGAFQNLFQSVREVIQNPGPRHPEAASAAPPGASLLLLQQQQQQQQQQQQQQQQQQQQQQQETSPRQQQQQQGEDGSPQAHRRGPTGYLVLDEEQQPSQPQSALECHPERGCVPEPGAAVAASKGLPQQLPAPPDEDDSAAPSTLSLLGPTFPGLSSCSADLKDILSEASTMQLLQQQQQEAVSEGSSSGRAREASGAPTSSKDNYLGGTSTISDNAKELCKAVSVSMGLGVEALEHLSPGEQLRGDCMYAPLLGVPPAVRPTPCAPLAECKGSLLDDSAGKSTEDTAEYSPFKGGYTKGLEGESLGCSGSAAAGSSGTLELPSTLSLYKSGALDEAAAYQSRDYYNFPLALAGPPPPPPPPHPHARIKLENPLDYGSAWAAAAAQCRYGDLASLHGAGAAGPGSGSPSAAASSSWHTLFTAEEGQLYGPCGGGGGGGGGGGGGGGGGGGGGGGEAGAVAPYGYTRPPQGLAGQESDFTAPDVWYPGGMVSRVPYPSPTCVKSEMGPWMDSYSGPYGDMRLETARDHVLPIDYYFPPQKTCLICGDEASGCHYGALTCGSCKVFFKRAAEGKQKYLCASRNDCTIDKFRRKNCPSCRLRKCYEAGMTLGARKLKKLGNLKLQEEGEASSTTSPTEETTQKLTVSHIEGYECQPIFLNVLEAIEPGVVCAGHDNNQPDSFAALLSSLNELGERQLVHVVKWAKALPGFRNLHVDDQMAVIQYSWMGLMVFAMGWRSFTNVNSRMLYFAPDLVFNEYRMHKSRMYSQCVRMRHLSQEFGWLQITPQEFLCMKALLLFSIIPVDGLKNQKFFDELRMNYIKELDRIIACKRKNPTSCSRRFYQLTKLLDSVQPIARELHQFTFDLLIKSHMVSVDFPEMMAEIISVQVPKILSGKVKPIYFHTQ
Procedure: Receptor Selection and Amplification (R-SAT) Assays. The functional receptor assay, Receptor Selection and Amplification Technology (R-SAT™), was used with minor modifications from the procedure described previously (Brann, M. R. U.S. Pat. No. 5,707,798, 1998) to screen compounds for efficacy at the Androgen AR receptor. Briefly, NIH3T3 cells were grown in roller bottles to 70-80% confluence. Cells were then transfected for 12-16 h with plasmid DNAs using Polyfect (Qiagen Inc.) as per the manufacturer's protocol. R-SAT assays were typically performed by transfecting 30 ug/bottle of receptor and 50 ug/bottle of β-galactosidase plasmid DNA. All receptor and helper constructs used were in mammalian expression vectors. Helpers are defined as signaling molecules that modulate both ligand-dependent and/or ligand-independent function of the AR receptor, typically co-activators. NIH3T3 cells were transfected for 12-16 h, then trypsinized and frozen in DMSO. Frozen cells were later thawed, plated at 10,000-40,000 cells per well of a 96 well plate containing drug. Cells were then grown in a humidified atmosphere with 5% ambient CO2 for five days. Media was then removed from the plates and marker gene activity was measured by the addition of the β-galactosidase substrate o-nitrophenyl β-D-galactopyranoside (ONPG, in PBS with 5% NP-40). The resulting colorimetric reaction was measured in a spectrophotometric plate reader (Titertek Inc.) at […]. All data were analyzed using the computer program XLFit (IDBSm).

[1] = test system: castrated male Sprague Dawley rats; assay: Wet tissue weights (prostate, seminal vesicle, levator ani muscle) after daily s.c. administration for two weeks; format: in vivo, rat; conditions: for wet weight of prostate / wet weight of seminal vesicle: castrated rats
Procedure: (§1) Androgen Receptor agonist 116BG33 was administered s.c. daily for two weeks to castrated male Sprague Dawley rats (n=3). The effects of 116BG33 (3, 10, 30 mg/kg) were compared to testosterone propionate (0.1 and 1 mg/kg; positive control) and vehicle (10% Tween80; negative control). Blood and wet weights of prostate gland and seminal vesicle were measured after sacrifice that occurred 24 hours after the last dose. Blood was collected in heparin collection tubes after sacrifice that occurred 24 hours after the last dose. Blood was centrifuged and plasma collected and plasma samples frozen.

[2] = test system: castrated male Sprague Dawley rats; assay: Rat luteinizing hormone (LH) plasma levels by ELISA after daily s.c. administration for 14 days; format: in vivo; conditions: for dose at which complete reversal of plasma LH levels is evident: s.c. daily for 14 days
Procedure: as §1
Rat luteinizing hormone (LH) plasma levels were determined using an enzyme linked immunoabsorbent assay (ELISA) from Amersham as per manufacturer's instructions. The solid phase assay is based on the competition between unlabeled rLH and a fixed quantity of biotin labelled rLH for a limited amount of rLH specific antibody. A conjugate streptavidin/peroxidase allows for signal amplification and detection in presence of the substrate.

[3] = 3, 10 or 30 mg/kg s.c. daily for two weeks, compared to vehicle
[4] = 0.1 mg/kg s.c. daily for two weeks, compared to vehicle
[5] = 1 mg/kg s.c. daily for two weeks, compared to vehicle

Q: Which results are given for `CC1CCC(C)N1c1ccc([N+](=O)[O-])c2ccccc12` (stereo not drawn)?
A: EC50 (Androgen AR receptor): 7.94 nM; Emax (Androgen AR receptor): 94%

Q: Which results are given for `N#Cc1ccc(N2[C@@H]3CC[C@H]2CC(NCCc2c[nH]cn2)C3)c2ccccc12` (mixture of isomers) [156AF11-229, 4-{3-[2-(1H-Imidazol-4-yl)ethylamino]-8-azabicyclo[3.2.1]oct-8-yl}naphthalene-1-carbonitrile, dihydrochloride]?
A: EC50 (Androgen AR receptor): 158 nM; Emax (Androgen AR receptor): 44%

Q: For `O=[N+]([O-])c1ccc(N2CCCC2)c2ccccc12` [116BG33, 1-(4-Nitronaphthalen-1-yl)pyrrolidine], which “wet weight of prostate” value [1, 3] is on record?
A: The value was “did not have any effect”.

Q: What about the “wet weight of seminal vesicle” value [1, 3] of the same molecule?
A: Its value is “did not have any effect”.

Q: What about the “dose at which complete reversal of plasma LH levels is evident” value [2] of the same molecule?
A: Its value is 30 mg/kg.

Q: And the “plasma LH levels” value ([2]; sub-cutaneous, 3, 10, 30 mg/kg, 14 days)?
A: The value was “reduces LH levels to physiological norms”.

Q: `N#Cc1ccc(N2CCCCC2)c2ccccc12` [136BG73-10, 4-Piperidin-1-ylnaphthalene-1-carbonitrile] was tested. Which EC50 (Androgen AR receptor) did it give?
A: Its EC50 is 7.94 nM.

Q: And the Emax (Androgen AR receptor)?
A: Its Emax is 66%.

Q: How did the EC50 (Androgen AR receptor) turn out when `N#Cc1ccc(N2CCC(O)C2)c2ccccc12` (stereo not drawn) [136BG85-2, 4-(3-Hydroxypyrrolidin-1-yl)naphthalene-1-carbonitrile] was run?
A: The EC50 was 79.4 nM.

Q: And the Emax (Androgen AR receptor)?
A: Its Emax is 41%.

Q: How did the “wet tissue weights (prostate, seminal vesicle, levator ani muscle)” value ([1]; 3 mg/kg s.c. daily for two weeks) turn out when `N#Cc1ccc(N2[C@@H]3CC[C@H]2CC(O)C3)c2ccccc12` (stereo partly drawn) [154BG31, 4-(3-endo-Hydroxy-8-azabicyclo[3.2.1]oct-8-yl)naphthalene-1-carbonitrile] was run?
A: Its value is “did not appear to significantly alter”.

Q: What about the “dose relative to TP at which negative side effects (increased seminal vesicle and prostate size) become evident” value ([1]; compared to TP) of the same molecule?
A: The value was “at least 100 × of TP”.

Q: What about the “wet tissue weights (prostate, seminal vesicle, levator ani muscle)” value ([1]; higher doses (3 and 10 mg/kg) daily, not to the extent of TP) of the same molecule?
A: Its value is “appeared to significantly increase”.

Q: What about the “dose at which complete reversal of plasma LH levels is evident” value [2] of the same molecule?
A: Its value is 10 mg/kg.

Q: What about the “plasma LH levels” value ([2]; various doses, s.c. for 14 days) of the same molecule?
A: Its value is “dose-dependent suppression”.

Q: With `N#Cc1ccc(N2C3CCC2CC(OC(=O)CCN2CCOCC2)C3)c2ccccc12` (stereo not drawn) [156AF32-246, 3-Morpholin-4-ylpropionic acid endo-8-(4-cyanonaphthalen-1-yl)-8-azabicyclo[3.2.1]oct-3-yl ester, hydrochloride] as the molecule, how does the EC50 (Androgen AR receptor) read?
A: The EC50 was 39.8 nM.

Q: And the Emax (Androgen AR receptor)?
A: The Emax was 57%.

Q: `CC1(O)CC2CCC(C1)N2c1ccc(C#N)c2ccccc12` (stereo not drawn) [156AF70-267, 4-(3-Endo-hydroxy-3-exo-methyl-8-azabicyclo[3.2.1]oct-8-yl)naphthalene-1-carbonitrile] was tested. Which EC50 (Androgen AR receptor) did it give?
A: The EC50 was 2 nM.

Q: What about the Emax (Androgen AR receptor) of the same molecule?
A: Its Emax is 88%.

Q: How did the EC50 (Androgen AR receptor) turn out when `CC1C=CC(C)N1c1ccc(C#N)c2ccccc12` (stereo not drawn) [196MBT2-7, 4-(2,5-Dimethyl-2,5-dihydropyrrol-1-yl)naphthalene-1-carbonitrile] was run?
A: The EC50 was 7.94 nM.

Q: And the Emax (Androgen AR receptor)?
A: The Emax was 85%.

Q: What does the source list for `CCC(=O)O[C@H]1CC[C@H]2[C@@H]3CCC4=CC(=O)CC[C@]4(C)[C@H]3CC[C@]12C` [testosterone propionate]?
A: wet weight of prostate [1, 4]: did not have any effect; wet weight of seminal vesicle [1, 4]: did not have any effect; wet weight of prostate [1, 5]: significant increases; wet weight of seminal vesicle [1, 5]: significant increases; wet weight of levator ani muscle [1, 5]: significant increases; plasma LH levels ([2]; 1 mg/kg, s.c. for 14 days, versus naive rats): restored LH levels to those obtained in naive rats; plasma LH levels ([2]; chronic administration (14 days), 0.1 and 1 mg/kg, versus naive animals): dose dependent reversal
